Measured values: patent publication US10898459B2, “Method of treating chronic kidney disease” (Panion & BF Biotech Inc., priority 2006, dated 2021)
Marks after values point to notes of the source that are not given here.

Assays:
[1] = test system: patients with end stage renal disease (ESRD) on hemodialysis; assay: Randomized, double-blind, placebo-controlled, dose-ranging study of ferric citrate on serum phosphate, calcium and Ca x PO4; type: in vivo, human; settings: for Serum Ca: Linear Regression: N.S.: Not Significant
Description: Ferric citrate is supplied in 500 mg capsules, whereas the placebo will be provided in identical-looking capsules (indistinguishable from those containing the active drug); the placebo capsules will contain sorbitol and colorant to match the powder color of the active capsules. The placebo capsule shells will be identical to the active capsule shells.
An non-limiting example of a dosing regimen is provided below. This is not meant to limit the invention as to how an effective amount of ferric citrate is selected, or the form in which it is provided or the frequency of administering the composition per day. The following merely illustrates how ferric citrate and placebo may be administered; e.g., as 500 mg capsules of identical appearance. All patients may receive (in a blinded fashion) 4 capsules with each of three meals, on a daily basis, for 28 days. Patients will be instructed to take the study medication within 10 minutes of finishing their meals (breakfast, lunch, and dinner).
Each patient's participation in the trial lasts for up to 8 weeks: the screening period (approximately 1-2 weeks), a 1-2 week washout, and 4 weeks of treatment with study medication.
The change in serum PO4 concentration at Days 14 and 28 from baseline.
The change in serum calcium concentration at Days 14 and 28 from baseline.
The change in the Ca′PO4 product at Days 14 and 28 from baseline.
Objectives: (1) To determine the effect of ferric citrate at doses of 2, 4 and 6 g daily, administered TID (three times a day), for 28 days on serum phosphate (PO4) levels in patients with end stage renal disease (ESRD). (2) To evaluate the safety of ferric citrate at doses of 2, 4, 6 g daily, administered TID, for 28 days in patients with ESRD.
Study Design: Randomized, double-blind, placebo-controlled, dose-ranging study to assess the effect of ferric citrate on serum phosphate concentrations in patients with ESRD on hemodialysis. Patients are assessed at Study Days 14 and 28 for effectiveness as measured by serum phosphate concentrations. Patients who received one or more doses of study medication are also assessed for safety.
Study Duration: 8 weeks (including the screening period, 2 weeks washout, 4 weeks treatment)
Ferric citrate is administered orally, and is given equally three times a day.

[2] = test system: patients with end stage renal disease (ESRD); assay: Open-label extension of Phase II study: serum creatinine level; type: in vivo, human; settings: several patients who received 6 g/day
Description: Glomerular filtration rate (GFR) level correlates with structural kidney damage and is used as a golden standard to measure kidney function. GFR can be estimated by the biomarkers serum creatinine. As renal function deteriorates, kidney lost its function to excrete creatinine effectively and lead to creatinine retention in the body. Therefore, increase of serum creatinine indicates lowering GFR and is an important sign of kidney deterioration.
In an open-label extension of a Phase II clinical study: “randomized, double-blind, placebo-controlled, dose-ranging study of the effects of ferric citrate on serum phosphate in patients with end stage renal disease (ESRD)”, some of the patients were administered 2˜6 g/day of ferric citrate and serum creatinine level was monitored to assess kidney function.

[3] = 2 g/day (N = 31), Day 0 (baseline)
[4] = 4 g/day (N = 32), Day 0 (baseline)
[5] = 6 g/day (N = 32), Day 0 (baseline)
[6] = 6 g/day (N = 32), Day 28, P < 0.05 baseline change vs placebo
[7] = at 0, 2, and 6 gm/day, TID immediately after meals, oral

ferric citrate
Serum [Ca] [1, 3]: 8.78 ± 0.981 mg/dL
Serum [PO4] [1, 3]: 7.1 ± 1.23 mg/dL
[Ca] * [PO4] [1, 3]: 62.9 ± 13.25 (mg/dL)^2
Serum [Ca] ([1]; 2 g/day (N = 31), Day 14): 9.01 ± 1.232 mg/dL
Serum [PO4] ([1]; 2 g/day (N = 31), Day 14): 6.7 ± 1.50 mg/dL
[Ca] * [PO4] ([1]; 2 g/day (N = 31), Day 14): 60.3 ± 16.50 (mg/dL)^2
Serum [Ca] ([1]; 2 g/day (N = 31), Day 28): 9.00 ± 0.953 mg/dL
Serum [PO4] ([1]; 2 g/day (N = 31), Day 28): 6.9 ± 2.22 mg/dL
[Ca] * [PO4] ([1]; 2 g/day (N = 31), Day 28): 61.7 ± 21.25 (mg/dL)^2
Serum [Ca] [1, 4]: 9.02 ± 0.913 mg/dL
Serum [PO4] [1, 4]: 7.1 ± 1.27 mg/dL
[Ca] * [PO4] [1, 4]: 63.5 ± 10.69 (mg/dL)^2
Serum [Ca] ([1]; 4 g/day (N = 32), Day 14): 9.47 ± 0.990 mg/dL
Serum [PO4] ([1]; 4 g/day (N = 32), Day 14): 6.4 ± 1.56 mg/dL
[Ca] * [PO4] ([1]; 4 g/day (N = 32), Day 14): 59.9 ± 13.89 (mg/dL)^2
Serum [Ca] ([1]; 4 g/day (N = 32), Day 28): 9.29 ± 0.960 mg/dL
Serum [PO4] ([1]; 4 g/day (N = 32), Day 28): 6.0 ± 1.33 mg/dL
[Ca] * [PO4] ([1]; 4 g/day (N = 32), Day 28): 55.4 ± 13.36 (mg/dL)^2
Serum [Ca] [1, 5]: 8.99 ± 0.812 mg/dL
Serum [PO4] [1, 5]: 7.3 ± 1.33 mg/dL
[Ca] * [PO4] [1, 5]: 65.8 ± 12.19 (mg/dL)^2
Serum [Ca] ([1]; 6 g/day (N = 32), Day 14): 9.13 ± 0.909 mg/dL
Serum [PO4] ([1]; 6 g/day (N = 32), Day 14): 6.3 ± 1.72 mg/dL
[Ca] * [PO4] ([1]; 6 g/day (N = 32), Day 14): 57.5 ± 16.27 (mg/dL)^2
Serum [Ca] ([1]; 6 g/day (N = 32), Day 28): 9.26 ± 0.865 mg/dL
Serum [PO4] [1, 6]: 5.8 ± 1.76 mg/dL
[Ca] * [PO4] [1, 6]: 54.1 ± 17.68* (mg/dL)^2
change in Ca*PO4 levels ([1]; 6 gm/day dose at both 14 and 28 days): decreased and were statistically significant
Serum Ca: Dose Response ([1]; Day 0): No
Ca × PO4: Linear Regression P ([1]; Day 14): P = 0.0401
Ca × PO4: Statistical Significant ([1]; Day 14): No
Serum Ca: Statistical Significant ([1]; Day 14): No
Serum PO4: Statistical Significant ([1]; Day 14): No
Serum Ca: Linear Regression ([1]; Day 14): N.S.
Ca × PO4: Dose Response ([1]; Day 14, placebo, 2, 4, 6 g/day): Yes
Serum Ca: Dose Response ([1]; Day 14, placebo, 2, 4, 6 g/day): No
Serum PO4: Dose Response ([1]; Day 14, placebo, 2, 4, 6 g/day): No
Ca × PO4: Linear Regression P ([1]; Day 28): P = 0.0158
Ca × PO4: Statistical Significant ([1]; Day 28): Yes (6 g/day)
Serum Ca: Statistical Significant ([1]; Day 28): No
Serum PO4: Linear Regression P ([1]; Day 28): P = 0.0073
Serum PO4: Statistical Significant ([1]; Day 28): Yes (6 g/day)
Serum Ca: Linear Regression ([1]; Day 28): N.S.
Ca × PO4: Dose Response ([1]; Day 28, placebo, 2, 4, 6 g/day): Yes
Serum Ca: Dose Response ([1]; Day 28, placebo, 2, 4, 6 g/day): No
Serum PO4: Dose Response ([1]; Day 28, placebo, 2, 4, 6 g/day): Yes
change in Ca*PO4 [1, 7]: decrease
change in serum PO4 [1, 7]: decrease
change in serum calcium level ([1]; during the 28 days, 2, 4, and 6 gm/day): No significant change
ability to lower the serum phosphate levels ([1]; patients with ESRD): demonstrated
serum creatinine level [2]: trend of decreased serum creatinine level
